Experimental data published in US20250282736A1, “SMALL MOLECULE MODULATORS OF HUMAN PREGNANE X RECEPTOR” (ST. JUDE CHILDREN'S RESEARCH HOSPITAL, priority 2022, published 2025).

Columns and labels:
hPXR [1] = molecular target: T1, hPXR (Homo sapiens (Human), UniProt O75469); assay: cell-based hPXR inverse agonistic assay; conditions: for inhibition at 10 µM: read-out: Inverse agonist (% inhibition at 10 μM)
hPXR [2] = molecular target: T1, hPXR; assay: cell-based hPXR agonistic assay; conditions: for Agonist (% activation at 10 μM): rifampicin at 10 μM as 100% activation, DMSO (0.3%) as 0%
hPXR [3] = molecular target: T1, hPXR; assay: hPXR binding assay; conditions: for inhibition at 10 µM: read-out: Binding (% inhibition at 10 μM)
hPXR [4] = molecular target: T1, hPXR; assay: cell-based hPXR antagonistic assay; conditions: for inhibition at 10 µM: read-out: Antagonist (% inhibition at 10 μM)
[5] = read-out: Binding (IC50/μM), hPXR binding assay

T1 sequence (O75469 whole entry): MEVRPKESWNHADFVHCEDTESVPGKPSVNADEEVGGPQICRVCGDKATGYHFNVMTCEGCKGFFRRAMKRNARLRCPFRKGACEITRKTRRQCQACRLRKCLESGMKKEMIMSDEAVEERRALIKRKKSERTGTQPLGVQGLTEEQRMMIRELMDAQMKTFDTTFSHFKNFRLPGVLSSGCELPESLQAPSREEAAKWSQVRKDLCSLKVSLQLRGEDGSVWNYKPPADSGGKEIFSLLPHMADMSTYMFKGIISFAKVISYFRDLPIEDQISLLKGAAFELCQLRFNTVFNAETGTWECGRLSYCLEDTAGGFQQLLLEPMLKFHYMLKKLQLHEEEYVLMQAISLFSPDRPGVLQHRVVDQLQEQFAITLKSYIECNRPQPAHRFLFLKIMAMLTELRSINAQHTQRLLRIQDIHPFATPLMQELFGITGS

| Structure (SMILES) | IC50 (hPXR [1]) [nM] | inhibition at 10 µM (hPXR [1]) [%] | EC50 (hPXR [2]) [nM] | inhibition at 10 µM (hPXR [3]) [%] | IC50 (hPXR [3]; [5]) [µM] | IC50 (hPXR [4]) [nM] | inhibition at 10 µM (hPXR [4]) [%] | IC50 (hPXR [3]) [µM] | Agonist (% activation at 10 μM) (hPXR [2]) |
| --- | --- | --- | --- | --- | --- | --- | --- | --- | --- |
| COc1ccc(OC)c(-n2nnc(C(=O)Nc3cc(NCC(=O)OC(C)(C)C)cc(C(C)(C)C)c3)c2C)c1 [D8, tert-butyl (3-(tert-butyl)-5-(1-(2,5-dimethoxyphenyl)-5-methyl-1H-1,2,3-triazole-4-carboxamido)phenyl)glycinate] | 120 | 127 | > 30000 | 81 | 0.33 | 460 ± 60 | 104 |  |  |
| COc1ccc(OC)c(-n2nnc(C(=O)Nc3cc(NCC(=O)O)cc(C(C)(C)C)c3)c2C)c1 [D9] | 1700 | 107 | > 30000 | 61 | 3.53 ± 0.58 | 17300 ± 1390 | 65 |  |  |
| COc1ccc(OC)c(-n2nnc(C(=O)Nc3cc(NCCN)cc(C(C)(C)C)c3)c2C)c1 [D10] | 7090 ± 1370 | 130 | > 30000 |  |  | 11900 ± 2270 | 104 | > 30 |  |
| COc1ccc(OC)c(-n2nnc(C(=O)Nc3cc(N=C=S)cc(C(C)(C)C)c3)c2C)c1 [D11] | 2550 ± 640 | 95 | > 30000 | 47 | 2.6 ± 0.51 | 30200 ± 16100 | 26 |  |  |
| COc1ccc(OC)c(-n2nnc(C(=O)Nc3cc(OC(=O)c4nnn(-c5cc(OC)ccc5OC)c4C)cc(C(C)(C)C)c3)c2C)c1 [D13, 3-(tert-butyl)-5-(1-(2,5-dimethoxyphenyl)-5-methyl-1H-1,2,3-triazole-4-carboxamido)phenyl 1-(2,5-dimethoxyphenyl)-5-methyl-1H-1,2,3-triazole-4-carboxylate] | 150 | 93 | > 30000 |  |  | 830 ± 110 | 68 | > 30 |  |
| COc1ccc(OC)c(-n2nnc(C(=O)Nc3cc(OCCCCI)cc(C(C)(C)C)c3)c2C)c1 [D17, N-(3-(tert-butyl)-5-(4-iodobutoxy)phenyl)-1-(2,5-dimethoxyphenyl)-5-methyl-1H-1,2,3-triazole-4-carboxamide] | 8.8 ± 3 | 120 | > 30000 | 50 | 0.18 | 66 ± 7 | 112 |  |  |
| COc1ccc(OC)c(-n2nnc(C(=O)Nc3cc(OCCCN4CCN(C)CC4)cc(C(C)(C)C)c3)c2C)c1 [D18] | 3730 ± 300 | 126 | > 30000 |  |  | 5320 | 105 | > 30 |  |
| C#CCCCOc1cc(NC(=O)c2nnn(-c3cc(OC)ccc3OC)c2C)cc(C(C)(C)C)c1 [D19] | 32 ± 7 | 116 | > 30000 | 25 | 0.024 | 190 | 107 |  |  |
| CCCCCCCCOc1cc(NC(=O)c2nnn(-c3cc(OC)ccc3OC)c2C)cc(C(C)(C)C)c1 [D20] | 820 ± 120 | 104 | > 30000 | 42 | 1 | 11500 ± 2810 | 35 |  |  |
| COc1ccc(OC)c(-n2nnc(C(=O)Nc3cc(OCCCCCCCCI)cc(C(C)(C)C)c3)c2C)c1 [D21, N-(3-(tert-butyl)-5-((8-iodooctyl)oxy)phenyl)-1-(2,5-dimethoxyphenyl)-5-methyl-1H-1,2,3-triazole-4-carboxamide] | 330 | 92 | > 30000 | 59 | 1.09 ± 0.31 | 2700 | 82 |  |  |
| COc1ccc(OC)c(-n2nnc(C(=O)Nc3cc(OCCCCCCCCCl)cc(C(C)(C)C)c3)c2C)c1 [D24] | 1070 ± 430 | 53 | > 30000 | 58 | 0.57 | 2690 ± 930 | 46 |  |  |
| COc1ccc(OC)c(-n2nnc(C(=O)Nc3cc(OCCCCCCCC=O)cc(C(C)(C)C)c3)c2C)c1 [D26] | 240 | 111 | > 30000 | 77 | 1.13 ± 0.36 | 1280 ± 280 | 189 |  |  |
| COCCOCCOCCOCCOc1cc(NC(=O)c2nnn(-c3cc(OC)ccc3OC)c2C)cc(C(C)(C)C)c1 [D27] | 1140 ± 580 | 91 | > 30000 | 70 | 1 ± 0.08 | 2140 ± 360 | 92 |  |  |
| COC(=O)CCCOc1cc(NC(=O)c2nnn(-c3cc(OC)ccc3OC)c2C)cc(C(C)(C)C)c1 [D29] | 310 | 105 | > 30000 | 25 | 0.31 ± 0.17 | 1090 ± 300 | 107 |  |  |
| COc1ccc(OC)c(-n2nnc(C(=O)Nc3cc(OCCCC(=O)O)cc(C(C)(C)C)c3)c2C)c1 [D30] | 190 | 118 | > 30000 | 71 | 1.71 ± 0.33 | 920 ± 120 | 104 |  |  |
| COc1ccc(OC)c(-n2nnc(C(=O)Nc3cc(OCC(=O)OC(C)(C)C)cc(C(C)(C)C)c3)c2C)c1 [D31, tert-butyl 2-(3-(tert-butyl)-5-(1-(2,5-dimethoxyphenyl)-5-methyl-1H-1,2,3-triazole-4-carboxamido)phenoxy)acetate] | 100 | 126 | > 30000 | 73 | 0.16 | 430 | 105 |  |  |
| COc1ccc(OC)c(-n2nnc(C(=O)Nc3cc(OCC(=O)O)cc(C(C)(C)C)c3)c2C)c1 [D32] | > 30000 |  | > 30000 |  |  | > 30000 |  | > 30 |  |
| COc1ccc(OC)c(-n2nnc(C(=O)Nc3cc(OCCOCCOCCOCCN)cc(C(C)(C)C)c3)c2C)c1 [D35] | > 30000 |  | > 30000 |  |  | 19700 ± 7630 | 84 | > 30 |  |
| COc1ccc(-n2nnc(C(=O)Nc3cccc(N4CCCC4)c3)c2C)cc1 [E1, 1-(4-methoxyphenyl)-5-methyl-N-(3-(pyrrolidin-1-yl)phenyl)-1H-1,2,3-triazole-4-carboxamide] | > 30000 |  | 320 ± 100 |  |  | > 30000 |  | > 30 | (30 ± 7)% |
| COc1ccc(-n2nnc(C(=O)Nc3ccc(NC(C)=O)c(C(C)(C)C)c3)c2C)cc1 [E2, N-(4-acetamido-3-(tert-butyl)phenyl)-1-(4-methoxyphenyl)-5-methyl-1H-1,2,3-triazole-4-carboxamide] | > 30000 |  | 5160 ± 1100 | 54 | 6.94 ± 0.2 | > 30000 |  |  | (24 ± 2)% |
| COc1ccc(-n2nnc(C(=O)Nc3ccc(N)c(C(C)(C)C)c3)c2C)cc1 [E3, N-(4-amino-3-(tert-butyl)phenyl)-1-(4-methoxyphenyl)-5-methyl-1H-1,2,3-triazole-4-carboxamide] | > 30000 |  | 860 ± 120 |  |  | > 30000 |  | > 30 | (29 ± 4)% |
| COc1ccc(-n2nnc(C(=O)Nc3ccccc3)c2C)cc1 [E4] | > 30000 |  | > 30000 |  |  | > 30000 |  | > 30 |  |
| COc1ccc(-n2nnc(C(=O)Nc3cccc(C(C)(C)C)c3)c2C)cc1 [E5] | > 30000 |  | 4050 ± 1520 |  |  | > 30000 |  | > 30 | (41 ± 3)% |
| COc1ccc(-n2nnc(C(=O)Nc3ccc(C(C)(C)C)cc3)c2C)cc1 [E6] | > 30000 |  | 1440 ± 270 |  |  | > 30000 |  | > 30 | (35 ± 3)% |
